This test has as its target T1, human-detived receptor TLR8 (Homo sapiens, UniProt Q9NR97).
T1 construct: host or cells: HEK-Blue hTLR8 cells (HEK293-derived reporter line)
T1 sequence (Q9NR97 27-1041): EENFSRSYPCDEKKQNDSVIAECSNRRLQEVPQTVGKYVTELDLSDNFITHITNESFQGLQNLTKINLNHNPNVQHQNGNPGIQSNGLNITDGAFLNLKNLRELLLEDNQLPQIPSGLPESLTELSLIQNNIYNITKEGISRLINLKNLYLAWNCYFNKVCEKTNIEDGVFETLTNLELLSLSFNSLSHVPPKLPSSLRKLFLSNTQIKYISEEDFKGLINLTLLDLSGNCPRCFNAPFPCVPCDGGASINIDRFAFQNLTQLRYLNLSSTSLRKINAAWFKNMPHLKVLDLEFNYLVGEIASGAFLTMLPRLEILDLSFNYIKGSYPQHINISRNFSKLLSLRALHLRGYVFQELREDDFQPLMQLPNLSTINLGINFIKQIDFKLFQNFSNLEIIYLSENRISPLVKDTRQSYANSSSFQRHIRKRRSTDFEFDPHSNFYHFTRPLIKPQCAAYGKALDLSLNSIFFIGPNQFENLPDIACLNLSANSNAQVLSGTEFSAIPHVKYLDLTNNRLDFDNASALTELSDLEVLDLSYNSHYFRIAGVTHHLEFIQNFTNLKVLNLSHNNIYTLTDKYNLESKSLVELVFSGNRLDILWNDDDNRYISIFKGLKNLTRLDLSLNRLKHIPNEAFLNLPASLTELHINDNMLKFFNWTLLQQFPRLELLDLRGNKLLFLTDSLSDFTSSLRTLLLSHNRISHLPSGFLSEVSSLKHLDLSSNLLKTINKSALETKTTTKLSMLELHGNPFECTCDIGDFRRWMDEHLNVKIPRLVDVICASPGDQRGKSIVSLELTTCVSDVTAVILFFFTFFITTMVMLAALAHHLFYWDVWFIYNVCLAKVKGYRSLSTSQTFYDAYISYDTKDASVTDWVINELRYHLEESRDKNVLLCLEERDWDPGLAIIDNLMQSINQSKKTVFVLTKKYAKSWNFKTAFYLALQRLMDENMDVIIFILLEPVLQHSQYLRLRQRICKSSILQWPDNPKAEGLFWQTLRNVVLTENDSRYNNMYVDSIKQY
As to the kind of experiment: Assay on agonistic activity for human-detived receptor TLR8 (HEK-Blue hTLR8 cells, HEK-Blue Detection Medium). The format is cell-based. As to conditions: 16 h incubation, absorbance at 620 nm. As to the method: The assay on the agonistic activity for human-detived receptor TLR7 was performed as that in Test Example 1; • the method for assaying the agonistic activity for the human-detived receptor TLR8 was as follows: HEK-Blue™ hTLR8 cells (InvivoGen, hkb-htlr8) were cultured in a DMEM complete medium (Gibco, 11965-092) containing 10% FBS (Invitrogen, 10099-141c), 1% P/S (Invitrogen, 15140-122), 10 μg/mL Blasticidin (InvivoGen, R210-01), 100 μg/mL Zeocin (InvivoGen, ant-zn), and 100 μg/mL Normocin (InvivoGen, Ant-nr-2). The cells were cultured in an incubator at 37° C. with 5% CO2. When HEK-Blue™ hTLR8 cells reached a growth density of 70%-80%, cell passage was needed.
The agonistic activity for the human-detived receptor TLR8 by HEK-Blue™ hTLR8 cells was assayed by HEK-Blue™ Detection Medium (InvivoGen, hb-det3). First, a bag of HEK-Blue™ Detection Medium powder was completely dissolved, and then filtered through a 0.22 μm filter. Antibiotics were then added until the final concentration was 1% P/S and 100 μg/mL Normocin. HEK-Blue™ Detection Medium was pre-heated to 37° C. in advance on the day of the assay on the activity for the TLR8 receptor, and the temperature was always maintained at 37° C.
The compound powder was dissolved in 100% DMSO (Sigma, D8418-1L) to obtain a 10 mM stock solution, and the compound was completely dissolved by shaking with an oscillator for later use.
The cell culture medium was removed from HEK-Blue™ hTLR8 cells with a growth density of 70-80%. Then, the cells were washed 2-3 times with PBS (Gibco, 10010-031). The cells were digested and then pipetted with a DMEM cell culture medium to a single cell suspension, which was then centrifuged at 1000 rpm for 10 min to collect the cell pellet. […] The cells were counted, diluted to a plating density, and transferred to a 384-well cell culture plate (Corning, 3764). […] After incubation in an incubator at 37° C. for 16 h, the absorbance was read at 620 nm using a microplate reader (PerkinElmer, VICTOR Nivo).
The EC50 of the compound was calculated using the GraphPad Prism 8 software (GraphPad Software, USA). The reading of the negative control well (the well without the compound) was subtracted from the absorbance reading at 620 nm of the compound, and was divided by the ratio of the difference between the positive control (1 μM positive compound) and the negative control well, so that the percentage of the ratio of each well to the ratio of the positive control well (the well treated with 10 μM positive compound), i.e., the percentage of activity, was calculated. Finally, the sigmoidal dose-response (variable slope) curve between the percentage of activity and the concentration of the compound was calculated using the software GraphPad Prism to calculate the EC50 of the compound.

The source of these data is patent US20240150346A1, “CLASS OF HETEROAROMATIC COMPOUND, PREPARATION METHOD THEREFOR AND USE THEREOF” (INNOVSTONE THERAPEUTICS LIMITED, priority 2021, published 2024).

Each structure is given as a SMILES string. pEC50: −log10 of the molar value. Counter-ions that a name gives are not always drawn.

As to `CSc1nc2c(N)nc3ccccc3c2n1Cc1ccc(CN2CCCC2)cc1` [Example 40, 2-(methylthio)-1-(4-(pyrrolidin-1-ylmethyl)benzyl)-1H-imidazo[4,5-c]quinoline-4-amine], the pEC50 – broadly, −log10 of the EC50, conventionally taken in molar units – was less than 5.00.

Take `CSc1nc2c(N)nc3ccccc3c2n1Cc1ccc(N2CCN(C)CC2)nc1` [Example 199]: the pEC50 is less than 5.00. Then `COc1nc2c(N)nc3ccccc3c2n1Cc1ccc(CN2CCCC2)cc1` [Comparative Example 1, 2-methoxy-1-((4-((pyrrolidin-1-yl)methyl)phenyl)methyl)-1H-imidazo[4,5-c]quinolin-4-amine trifluoroacetate, reference compound], with less than 5.00; and `COc1cc(CN(C)C)ccc1Cn1c(SC)nc2c(N)nc3ccccc3c21` [Example 240], with less than 5.00.
